US20250154169A1, “COMPOUNDS AND METHODS FOR MODULATING SPLICING” (REMIX THERAPEUTICS INC., priority 2021, published 2025)
Where a name gives a salt, the structure may show the parent alone. Read-outs that look alike come from different tables or passages of the source.

Columns and labels:
Format in all cases: cell-based, human
MYB mRNA = experiment: Splicing RT-qPCR assay, MYB canonical (CJ) and alternative (AJ) junction mRNA; settings: Homo sapiens; for AC50: read-out: MYB AJ (AC50, increase in alternative junction mRNA)
In short: (§1)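 Compound-induced exon inclusion is tracked as an increase in AJ transcript alongside the CJ transcript. Cells (A673 normalized to PPIA; K562 to GAPDH or GUSB) are dosed 24 h with a serial dilution topping at 10 uM, ≤0.25% DMSO, then lysed and analysed by RT-qPCR in at least duplicate.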

Target C mRNA = experiment: Splicing RT-qPCR gene panel, Target C canonical junction (CJ) mRNA; settings: Homo sapiens, Tables 4A/4B, read-out: Target C (IC50, decrease in CJ mRNA, gene panel)
In short: (§2)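 A673/K562, 24 h cpd, 11-pt 3-fold from 10 uM, DMSO ≤0.25%. Lysis, direct RT-qPCR of CJ isoform, ≥duplicate. GAPDH/GUSB/PPIA norm, ΔΔCt vs DMSO → RQ → % response.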

HTT mRNA [1] = experiment: Splicing RT-qPCR assay, HTT canonical (CJ) and alternative (AJ) junction mRNA; settings: Homo sapiens, A673 or K562 cells, 24 hours compound treatment; for IC50: 24 h, read-out: HTT CJ (IC50, decrease in canonical junction mRNA); for AC50: read-out: HTT AJ (AC50, increase in alternative junction mRNA)
In short: as §1

SMN2 mRNA = experiment: Splicing RT-qPCR gene panel, SMN2 canonical junction (CJ) mRNA; settings: Homo sapiens, Tables 4A/4B, read-out: SMN2 (IC50, decrease in CJ mRNA, gene panel)
In short: as §2

HTT mRNA [2] = experiment: Splicing RT-qPCR gene panel, HTT canonical junction (CJ) mRNA; settings: Homo sapiens, Tables 4A/4B, read-out: HTT (IC50, decrease in CJ mRNA, gene panel)
In short: as §2

[3] = 24 h, A673 or K562 cells, 24 hours compound treatment, RT-qPCR
[4] = 24 h, A673 or K562 cells, 24 hours compound treatment, RT-qPCR, read-out: MYB CJ (IC50, decrease in canonical junction mRNA)
[5] = Tables 4A/4B, canonical junction qPCR panel, read-out: MYB (IC50, decrease in CJ mRNA, gene panel)

SMILES	AC50 (MYB mRNA; [3])	IC50 (MYB mRNA; [4])	IC50 (MYB mRNA; [5])	IC50 (Target C mRNA)	IC50 (HTT mRNA [1])	AC50 (HTT mRNA [1])	IC50 (SMN2 mRNA)	IC50 (HTT mRNA [2])
Cc1cn2cc(NC(=O)c3ccc(N4CCNCC4)c4cn(CC5CCO5)nc34)cc(F)c2n1 (stereo not drawn) [Compound 338, N-{8-fluoro-2-methylimidazo[1,2-a]pyridin-6-yl}-2-(oxetan-2-ylmethyl)-4-(piperazin-1-yl)indazole-7-carboxamide]	100 to 1000 nM	100 to 1000 nM	100 to 1000 nM	> 10000 nM	1000 to 10000 nM	1000 to 10000 nM	< 100 nM	1000 to 10000 nM
CC(=O)Cn1cc2c(N3CCNCC3)ccc(C(=O)Nc3cc(F)c4nc(C)cn4c3)c2n1 [Compound 339, N-{8-fluoro-2-methylimidazo[1,2-a]pyridin-6-yl}-2-(2-oxopropyl)-4-(piperazin-1-yl)indazole-7-carboxamide]	1000 to 10000 nM	1000 to 10000 nM	1000 to 10000 nM	> 10000 nM	> 10000 nM	> 10000 nM	100 to 1000 nM	> 10000 nM
Cc1cn2cc(NC(=O)c3ccc(N4CCNCC4)c4cn(Cc5ccc6[nH]ncc6c5)nc34)cc(F)c2n1 [Compound 340, N-{8-fluoro-2-methylimidazo[1,2-a]pyridin-6-yl}-2-(1H-indazol-5-ylmethyl)-4-(piperazin-1-yl) indazole-7-carboxamide trifluoroacetate]	1000 to 10000 nM	1000 to 10000 nM	1000 to 10000 nM	> 10000 nM	> 10000 nM	> 10000 nM	100 to 1000 nM	> 10000 nM
Cc1cn2cc(NC(=O)c3ccc(N4CCNCC4)c4cn(Cc5cn[nH]c5)nc34)cc(F)c2n1 [Compound 341, N-{8-fluoro-2-methylimidazo[1,2-a]pyridin-6-yl}-4-(piperazin-1-yl)-2-(1H-pyrazol-4-ylmethyl)indazole-7-carboxamide]	1000 to 10000 nM	1000 to 10000 nM	1000 to 10000 nM	> 10000 nM	> 10000 nM	> 10000 nM	100 to 1000 nM	> 10000 nM
Cc1cn2cc(NC(=O)c3ccc(N4CCNCC4)c4cn(C)nc34)[nH]c(=O)c2n1 [Compound 342, N-{8-hydroxy-2-methylimidazo[1,2-a]pyrazin-6-yl}-2-methyl-4-(piperazin-1-yl) indazole-7-carboxamide]	> 10000 nM	1000 to 10000 nM	1000 to 10000 nM	> 10000 nM	> 10000 nM	> 10000 nM	> 10000 nM	> 10000 nM
COc1c(NC(=O)c2ccc(N3CCNCC3)c3cn(C)nc23)cn2cc(C)nc2c1F [Compound 343, N-{8-fluoro-7-methoxy-2-methylimidazo[1,2-a]pyridin-6-yl}-2-methyl-4-(piperazin-1-yl) indazole-7-carboxamide]	< 100 nM	< 100 nM	< 100 nM	100 to 1000 nM	< 100 nM	< 100 nM	< 100 nM	< 100 nM
COc1c(NC(=O)c2ccc(N3CCNCC3)c3cn(C)nc23)cc2cn(C)nc2c1C [Compound 344, N-(6-methoxy-2,7-dimethylindazol-5-yl)-2-methyl-4-(piperazin-1-yl) indazole-7-carboxamide trifluoroacetate]	1000 to 10000 nM	1000 to 10000 nM	1000 to 10000 nM	> 10000 nM	> 10000 nM	> 10000 nM	100 to 1000 nM	> 10000 nM
Cc1cn2cc(NC(=O)c3ccc(N4CCC(NCc5ccccn5)CC4)c4cn(C)nc34)cc(F)c2n1 [Compound 347, N-{8-fluoro-2-methylimidazo[1,2-a]pyridin-6-yl}-2-methyl-4-{4-[(pyridin-2-ylmethyl)amino]piperidin-1-yl}indazole-7-carboxamide]	< 100 nM	< 100 nM	< 100 nM	1000 to 10000 nM	1000 to 10000 nM	1000 to 10000 nM	< 100 nM	1000 to 10000 nM
Cc1cn2cc(NC(=O)c3ccc(N4CCC5(CC4)CNC5)c4cn(C)nc34)cc(F)c2n1 [Compound 348, 4-{2,7-diazaspiro[3.5]nonan-7-yl}-N-{8-fluoro-2-methylimidazo[1,2-a]pyridin-6-yl}-2-methylindazole-7-carboxamide]	< 100 nM	< 100 nM	< 100 nM	1000 to 10000 nM	1000 to 10000 nM	1000 to 10000 nM	< 100 nM	1000 to 10000 nM
Cc1cn2cc(NC(=O)c3ccc(N4CCC5(CCCN5)CC4)c4cn(C)nc34)cc(F)c2n1 [Compound 349, 4-{1,8-diazaspiro[4.5]decan-8-yl}-N-{8-fluoro-2-methylimidazo[1,2-a]pyridin-6-yl}-2-methylindazole-7-carboxamide]	< 100 nM	< 100 nM	< 100 nM	100 to 1000 nM	100 to 1000 nM	100 to 1000 nM	< 100 nM	100 to 1000 nM
Cc1cn2cc(NC(=O)c3ccc(N4CCNCC4)c4cn(CC(C)(C)O)nc34)cc(F)c2n1 [Compound 354, N-{8-fluoro-2-methylimidazo[1,2-a]pyridin-6-yl}-2-(2-hydroxy-2-methylpropyl)-4-(piperazin-1-yl)indazole-7-carboxamide]	1000 to 10000 nM	1000 to 10000 nM	1000 to 10000 nM	> 10000 nM	> 10000 nM	> 10000 nM	100 to 1000 nM	> 10000 nM
Cc1cn2cc(NC(=O)c3ccc(N4CCNCC4)c4cn(C5CC(O)C5)nc34)cc(F)c2n1 (stereo not drawn) [Compound 355, N-{8-fluoro-2-methylimidazo[1,2-a]pyridin-6-yl}-2-(3-hydroxycyclobutyl)-4-(piperazin-1-yl)indazole-7-carboxamide]	< 100 nM	< 100 nM	< 100 nM	> 10000 nM	> 10000 nM	1000 to 10000 nM	< 100 nM	> 10000 nM
Cc1cn2cc(NC(=O)c3ccc(N4CCNCC4)c4cn(C5CCOC5)nc34)cc(F)c2n1 (stereo not drawn) [Compound 356, N-{8-fluoro-2-methylimidazo[1,2-a]pyridin-6-yl}-2-(oxolan-3-yl)-4-(piperazin-1-yl)indazole-7-carboxamide]	100 to 1000 nM	100 to 1000 nM	100 to 1000 nM	> 10000 nM	> 10000 nM	> 10000 nM	< 100 nM	> 10000 nM
Cc1cn2cc(NC(=O)c3ccc(N4CCNCC4)c4cn(CC5(O)CC5)nc34)cc(F)c2n1 [Compound 358, N-{8-fluoro-2-methylimidazo[1,2-a]pyridin-6-yl}-2-[(1-hydroxycyclopropyl)methyl]-4-(piperazin-1-yl)indazole-7-carboxamide]	100 to 1000 nM	100 to 1000 nM	100 to 1000 nM	> 10000 nM	1000 to 10000 nM	> 10000 nM	< 100 nM	1000 to 10000 nM
CNc1cc(N2CCNCC2)c2cn(C)nc2c1C(=O)Nc1cc(F)c2nc(C)cn2c1 [Compound 362, N-{8-fluoro-2-methylimidazo[1,2-a]pyridin-6-yl}-2-methyl-6-(methylamino)-4-(piperazin-1-yl) indazole-7-carboxamide]	1000 to 10000 nM	1000 to 10000 nM	1000 to 10000 nM	> 10000 nM	> 10000 nM	> 10000 nM	100 to 1000 nM	> 10000 nM
